Data reported in PMC3463753 (Molecular pharmaceutics, 2012).

System: MDCK-WT, MDCK-CYP3A4 and MDCK-MDR1-CYP3A4 cells
Assay: Mannitol
Type: in vitro ADME, dog
Details: paracellular marker; data not shown

OC[C@@H](O)[C@@H](O)[C@H](O)[C@H](O)CO [mannitol]
Mannitol transport in MDCK-WT, MDCK-CYP3A4 and MDCK-MDR1-CYP3A4 cells: No significant difference
